According to patent US20230374068A1, “COMPOSITIONS AND METHODS FOR TREATING A DISEASE” (RAMOT AT TEL AVIV UNIVERSITY LTD., priority 2021, published 2023):
“Also recorded” adds a separate entry of the source. Values belong to the molecule of their own block, whether it stands above or below them.

Assays:
Rab12 phosphorylation [1] = assay: Rab12 phosphorylation in PC12 cells, Ion/TPA- or rotenone-treated (western blot); format: cell-based
Description: Cells that were incubated in the absence of rotenone were then left untreated or incubated with a combination of 1 μM 4-bromo-calcium ionophore A23187 (Ion) and 50 nM of the phorbol ester (TPA) for 30 minutes at 37° C. Cells were then washed three times with PBS, lysed with lysis buffer containing phosphatase inhibitors and cell lysates analysed by western blotting with anti phosphoRab12 antibodies followed by re-probing with anti GAPDH antibodies. […] The results are the fold increase in Rab12 phosphorylation based on the ratio of phosphorylated Rab12 to GAPDH.
Samples were separated by SDS-PAGE using 10-12% polyacrylamide gels and electrophoretically transferred to nitrocellulose membranes. Blots were blocked for 20 min in TBST (10 mM Tris-HCl, pH 8.0, 150 mM NaCl, and 0.05% Tween 20) containing 5% skim-milk, followed by overnight incubation at 4° C. with the desired primary Abs. Blots were washed three times and incubated for 1 hour at room temperature with HRP-conjugated secondary Ab. Immunoreactive bands were visualized by the ECL method according to standard procedures. The intensity of the immunoreactive bands was quantified using ImageJ software.
For Rab12 phosphorylation in PC12 cells, cells were grown for 48 hours either in growth medium or in medium supplemented with 1 μM LY333531 or 10 μM GSK2578215A in the absence or presence of 100 nM rotenone. For Ion/TPA-stimulated phosphorylation, cells grown in medium only or medium containing inhibitors, were stimulated with 1 μM 4-bromo-calcium ionophore A23187 (Ion) and 50 nM of the phorbol ester (TPA) for 30 minutes. Cells were processed as above.

Rab12 phosphorylation [2] = assay: Rab12 phosphorylation in Ion/TPA-activated BMMCs with inhibitors (western blot); format: cell-based, mouse; conditions: 1 μM inhibitor, 30 min pre-incubation, then Ion/TPA 30 min
Description: BMMCs were seeded in 10 cm plates overnight in growth medium or medium containing 400 nM TPA. Next day cells were collected and washed three times with Tyrode's buffer in Eppendorf tubes. Cells were subsequently incubated for 30 minutes at 37° C. with vehicle (0.1% DMSO) or with 10 μM GSK2578215A (GSK), 1 μM Go6976, 2 mM EGTA or 1 μM MRT68921, as indicated. Cells were then left untreated (UT) or treated for additional 30 minutes at 37° C., with a combination of 1 μM 4-bromo-calcium ionophore A23187 (Ion) and 50 nM of the phorbol ester (TPA), in the absence or presence of the inhibitors. Cells were then washed three times with PBS, lysed with lysis buffer containing phosphatase inhibitors and cell lysates analysed by western blotting with anti phosphoRab12 antibodies followed by reprobing with anti Rab12 antibodies. A representative blot is shown.
The results are the relative ratio of phosphorylated to total Rab12. […]
Samples were separated by SDS-PAGE using 10-12% polyacrylamide gels and electrophoretically transferred to nitrocellulose membranes. […] The intensity of the immunoreactive bands was quantified using ImageJ software.
Cells (RBL, BMMCs or SH-SY5Y) were grown overnight in growth medium or medium containing 400 nM TPA, where indicated. […] Cells were then washed with PBS and lysed for 30 minutes in lysis buffer D. Cell lysates were analyzed by western blotting. […]

[3] = biological target: T1, Rab12 interaction with RILP (Mus musculus, UniProt Q5ND29); assay: Peptide inhibition of Rab12 pulldown by GST-RILP from RBL cell lysates; format: binding, rat; conditions: 100 μM peptide, 4 h at 4° C., then RBL cell lysate overnight
T1 construct: made in house
T1 sequence (Q5ND29 1-369): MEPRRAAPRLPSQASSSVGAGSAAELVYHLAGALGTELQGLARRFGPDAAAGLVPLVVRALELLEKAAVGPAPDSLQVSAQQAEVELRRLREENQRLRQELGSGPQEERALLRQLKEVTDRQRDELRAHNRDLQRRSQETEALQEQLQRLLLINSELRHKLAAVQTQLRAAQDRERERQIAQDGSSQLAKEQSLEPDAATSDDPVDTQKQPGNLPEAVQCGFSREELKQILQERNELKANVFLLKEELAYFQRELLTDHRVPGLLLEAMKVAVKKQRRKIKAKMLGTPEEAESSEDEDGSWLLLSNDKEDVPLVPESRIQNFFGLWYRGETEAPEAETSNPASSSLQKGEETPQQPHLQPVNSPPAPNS
Description: At the end of the incubation period, beads were sedimented by centrifugation at 5000×g for 5 min at 4° C., washed four times with 50 mM Hepes pH 7.4, 150 mM NaCl, 1 mM MgCl2, 0.2% Triton X-100, protease inhibitor mixture, 1 mM PMSF, 2 mM Na3VO4, 10 mM NaPPi and 80 mM β-glycerophosphate and suspended in 1× sample buffer and boiled for 7 minutes. Proteins were resolved by SDS-PAGE and analyzed by immunoblotting with anti Rab12 antibodies. […] The results are the average pulldown±SEM derived from two independent experiments.
Pulldown assays were performed as previously described 2. Briefly, 20 μg of GST fusion proteins or control GST immobilized on Glutathione Agarose beads were incubated for 18 hours at 4° C. with RBL cell lysates (500 μg) prepared in buffer C (50 mM Hepes pH 7.4, 150 mM NaCl, 1 mM MgCl2, 1% TritonX100, 1 mM PMSF, protease inhibitor mixture, 2 mM Na3VO4) in the presence of 0.5 mM GTPγS. At the end of the incubation period, beads were sedimented by centrifugation at 5000×g for 5 minutes at 4° C., washed 4 times in buffer C with 0.2% TritonX100, and finally suspended in sample buffer, boiled for 7 minutes, and subjected to SDS-PAGE and immunoblotting. […]

PC12 cells = assay: SG distribution, cell morphology and primary cilia in PC12 cells expressing CA Rab12 (confocal microscopy); format: cell-based
Description: Cells (4×10^4 cells/well) were seeded onto 12 mm round glass coverslips in a 24-well plate. Next day, cells were transiently co-transfected using lipofectamine 2000 with 500 ng of plasmid encoding NPY-mRFP and 1000 ng of pEGFP-C1-Rab12(Q100L), a GTP-locked, constitutively active mutant of Rab12 (herein: CA Rab12). After transfection, cells were either left untreated (UT) or incubated for 48 hours at 37° C. with 100 nM rotenone. After 48 hours, cells were incubated for an additional hour at 37° C. with or without 100 μM of TAT-125 peptide (i.e. […], SEQ ID NO: 14), as indicated. Cells were then fixed and immunostained with polyclonal antibodies directed against Arl13b (primary cilium marker), followed by Hilyte Plus 647-conjugated goat anti-rabbit IgG. Cells were visualized by confocal microscopy. The right panels are the overlap of the confocal images on the corresponding brightfield.
RBL cells (4×10^5 cells/well) or PC12 cells (4×10^4 cells/well) were grown on 12-mm round glass coverslips, washed three times with PBS, and fixed for 20 min at room temperature with 4% paraformaldehyde in PBS. […] After washing, the cells were mounted (Golden Bridge Life Science, Mukilteo City, WA) and analyzed using a LEICA SP8 STED high resolution laser scanning confocal microscope (Leica, Wetzlar, Germany) using a 63 oil/1.4 numerical aperture objective. […]

[4] = biological target: T2, endogenous Rab12 of RBL cells (rat, UniProt P35284 49-291, limits assumed); assay: GST pulldown of endogenous Rab12 from resting RBL cell lysates, anti-Rab12 immunoblot
T2 construct: Total Rab12 pulled down from cell lysates (blot reprobed with anti-Rab12)
T2 sequence (looked up): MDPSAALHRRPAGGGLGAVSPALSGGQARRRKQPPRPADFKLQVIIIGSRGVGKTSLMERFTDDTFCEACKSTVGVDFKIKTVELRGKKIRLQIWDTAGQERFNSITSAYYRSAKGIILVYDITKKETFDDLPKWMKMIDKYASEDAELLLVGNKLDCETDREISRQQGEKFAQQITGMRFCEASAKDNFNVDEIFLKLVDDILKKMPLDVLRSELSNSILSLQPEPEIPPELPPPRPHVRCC
Description: Cells were then lysed and 500 μg of cell lysate were incubated overnight at 4° C. with either GST, GST-RILP, GST-RILP-L1 or GST-RILP-L2, immobilized on glutathione agarose beads, as indicated. At the end of the incubation period, beads were sedimented by centrifugation at 5000×g for 5 minutes at 4° C., washed four times with buffer containing 50 mM Hepes pH 7.4, 150 mM NaCl, 1 mM MgCl₂, 0.2% Triton X-100, protease inhibitor mixture, 1 mM PMSF, 2 mM Na₃VO₄, 10 mM NaPPi and 80 mM β-glycerophosphate and suspended in 1× sample buffer and boiled for 7 minutes. Proteins were resolved by SDS-PAGE and analyzed by immunoblotting with the anti-phosphoRab12 antibodies, followed by reprobing with anti Rab12 antibodies, as indicated. Representative blots are shown. Similar results were obtained in two separate experiments.
Next, it was assessed whether […] any impact on Rab12 interactions with its RILP family effectors. To this end, lysates derived from resting RBL cells or RBL cells that were triggered with either IgE/Ag or Ion/TPA, were subjected to pulldown assays by chimeric proteins consisting of GST-fused to either RILP, RILP-L1, or RILP-L2, or control GST. […] Therefore, under these conditions, the efficacy of Rab12-effector interactions was RILP-L1>RILP>>>RILP-L2.

Molecule: O=C(Nc1cccnc1)c1cc(-c2ccnc(F)c2)ccc1OCc1ccccc1 [GSK2578215A]
rotenone-induced phosphorylation of Rab12 (Rab12 phosphorylation [1]; 100 nM rotenone 48 h with 1 μM LY333531 or 10 μM GSK2578215A): significantly inhibited | Ion/TPA-induced phosphorylation of Rab12 (Rab12 phosphorylation [1]; 1 μM LY333531 or 10 μM GSK2578215A 48 h, Ion/TPA 30 min): resistant

Molecule: Cn1c2ccccc2c2c3c(c4c5ccccc5n(CCC#N)c4c21)CNC3=O [Go6976]
Ion/TPA-stimulated phosphorylation of Rab12 (Rab12 phosphorylation [2]): significantly inhibited

Molecule: CN1CCc2cc(Nc3ncc(C4CC4)c(NCCCNC(=O)C4CCC4)n3)ccc2C1 [MRT68921]
Ion/TPA-stimulated phosphorylation of Rab12 (Rab12 phosphorylation [2]): significantly inhibited

Molecule: C=C(C)[C@H]1Cc2c(ccc3c2O[C@@H]2COc4cc(OC)c(OC)cc4[C@@H]2C3=O)O1 [rotenone]
induction of Rab12 phosphorylation (Rab12 phosphorylation [1]; Ion/TPA 30 min or 100 nM rotenone 48 h): induced

pulldown of Rab12 by GST-RILP [3]: could inhibit
Molecule: EACKSTVGVDFKIKT [peptide Rab125, human Rab12 residues 69-83]

pulldown of Rab12 by GST-RILP [3]: could inhibit
Molecule: ERFNSITSAYYRSAK [peptide Rab121, human Rab12 residues 102-116]

Molecule: YGRKKRRQRRRGGEACKSTVGVDFKIKT [TAT-125, cell permeable version of peptide 125]
cellular distribution of the SGs (Rab12-RILP interaction in intact cells) (PC12 cells; PC12 cells expressing CA Rab12 and NPY-mRFP, 100 μM TAT-125): partial scattering of the clustered SGs | cell morphology and primary cilia of rotenone treated cells (PC12 cells; PC12 cells, 100 nM rotenone 48 h, then 100 μM TAT-125): improves the cell morphology; also recorded: regained their normal appearance and size

fold pulldown efficacy against GST-RILP [4]: 3 fold | fold pulldown efficacy against GST-RILP-L2 [4]: 9 fold
B1: GST-RILP-L1 (pGEX-4T-3-RILP-L1) (other, mouse, UniProt Q9JJC6 1-406, looked up)
chain: MEEPLGSPPAALSALEKNVAELTVMDVYDIASLVGHEFERVIDQHGCESIARLMPKVVRVLEILEVLVSRHHVAPELDELRLELDRLRVERMDRIEKERKHQKELELVEDVWRGEAQDLLSQIAQLQEENKQLMTNLNHKDVGFSEEEFQKQEGMSERERQVMKRLKEVVDKQRDELRAKDRELGLKNEDVEALQQQQTRLMKINHDLRHRVTVVEAQGKALIEQKVELEADLQTKEQEMGSLRAELGKLRERLQGEHSQNGEEEEAEIQPQPDGEESISDAEKAALDLKDPNRPRFTLQELRDVLHERNELKSKVFLLQEELAYYKSEEIEEENRIPQPPPITHPRTSPQPESGIKRLFSFFSRDKKRLANTQRPTHIHESFGQWAITQRDDGYTEQGQEALQHL
notes: Immobilized on glutathione agarose beads; not shown: glutathione S-transferase (GST) encoded by the pGEX-4T-3 vector
